According to article PMC12165062, “High‐Throughput Fluorescence Screening Enables Globally Consistent Identification of ABA Signaling Modulators” (Advanced Science, 2025):
Read-outs that look alike come from different tables or passages of the source.

What was measured:
PYR1 [1] = molecular target: T1, PYR1 (Arabidopsis thaliana, UniProt O49686); test: biochemical; parameters: Fluorescence competition displacing lebactin (1 uM) from PYR1 (8 uM); Kd from double-log titration fit; details: 1 uM lebactin, 8 uM PYR1; read-out: F(GhitFluors)/Kd/μM
T1 sequence (O49686 1-191): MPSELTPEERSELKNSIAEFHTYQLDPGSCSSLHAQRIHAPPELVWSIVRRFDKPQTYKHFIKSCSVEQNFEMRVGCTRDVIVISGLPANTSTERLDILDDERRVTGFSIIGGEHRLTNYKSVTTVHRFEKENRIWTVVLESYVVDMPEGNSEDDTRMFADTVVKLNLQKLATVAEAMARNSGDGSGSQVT
Excerpt: (§1) Validation of the Fluorescent Chemosensor‐Based Screening Platform In‐house Chemical Database Screening Assay To validate the practicality of GhitFluors platform for global high‐throughput identification of ABA receptor modulators, we used this platform to analyze a library comprising several hundreds‐amide compounds. First, we evaluated K d values of several hundreds amide‐compounds using fluorescence competition assays. […] Meanwhile, binding affinities of the six compounds to PYR1 were evaluated using ITC or BLI assays to validate the screening results. […] As depicted in Figure 4a, a significant decrease in fluorescence intensity was observed as the concentration of diopyridin increased, ranging from 30 to 350 µM. When the concentration of diopyridin reached 350 µM, fluorescence intensity was close to the threshold. […] In addition, we also tested the binding affinities of diopyridin with other representative PYLs, including dimer (PYL1, PYL2), and monomer (PYL4, PYL5, and PYL10‐PYL12) that had K d values ranging from 0.97 to 32.8 µM, and 1.6 to 243.7 µM, respectively (Figure S20, Supporting Information).

PYR1 [2] = molecular target: T1, PYR1; test: biochemical; parameters: Isothermal titration calorimetry of compound binding to PYR1; details: read-out: ITC/Kd/μM
Description: as §1, with “To” for “Validation of the Fluorescent Chemosensor‐Based Screening Platform In‐house Chemical Database Screening Assay To”

[3] = molecular target: T2, PYR-HAB1 (PYR1 with HAB1) (Arabidopsis thaliana, UniProt O49686); test: Ser/Thr phosphatase assay (Promega), HAB1 inhibition via PYR1; type: biochemical
T2 construct: HAB1 construct not described in main text; with Protein phosphatase 2C 16
T2 sequence (O49686 1-191): T1 sequence (O49686 1-191)
T2 sequence (Q9CAJ0 1-511 partner): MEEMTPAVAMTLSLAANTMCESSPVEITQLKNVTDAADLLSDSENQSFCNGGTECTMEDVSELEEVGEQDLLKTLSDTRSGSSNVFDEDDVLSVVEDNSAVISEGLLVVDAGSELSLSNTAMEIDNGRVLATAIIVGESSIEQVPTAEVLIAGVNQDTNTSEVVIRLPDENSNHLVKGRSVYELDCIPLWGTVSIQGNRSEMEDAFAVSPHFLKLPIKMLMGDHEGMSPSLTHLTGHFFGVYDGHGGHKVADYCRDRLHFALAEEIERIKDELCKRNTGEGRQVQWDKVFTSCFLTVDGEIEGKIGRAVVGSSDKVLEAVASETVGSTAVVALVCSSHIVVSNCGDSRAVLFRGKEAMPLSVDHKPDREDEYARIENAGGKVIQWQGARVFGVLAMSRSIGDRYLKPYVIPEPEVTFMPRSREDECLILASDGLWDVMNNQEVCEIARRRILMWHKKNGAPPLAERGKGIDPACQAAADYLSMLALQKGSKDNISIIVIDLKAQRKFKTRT

PYR1 [4] = molecular target: T1, PYR1; test: biochemical; parameters: Bio-layer interferometry of compound binding to PYR1; details: read-out: BLI/Kd/μM
Description: To validate the practicality of GhitFluors platform for global high‐throughput identification of ABA receptor modulators, we used this platform to analyze a library comprising several hundreds‐amide compounds. First, we evaluated K d values of several hundreds amide‐compounds using fluorescence competition assays. […] Meanwhile, binding affinities of the six compounds to PYR1 were evaluated using ITC or BLI assays to validate the screening results. […] As depicted in Figure 4a, a significant decrease in fluorescence intensity was observed as the concentration of diopyridin increased, ranging from 30 to 350 µM. When the concentration of diopyridin reached 350 µM, fluorescence intensity was close to the threshold. […] It should have a low fluorescence background, high fluorescence shift and stability, and appropriate binding affinity, as these determine the accuracy, feasibility and, the sensitivity of this platform, respectively. […] First, we evaluated the fluorescence background of all chemosensors by using 310–370 nm as excitation wavelength. […] In addition, the binding affinity of compound 1a (lebactin) for PYR1 was evaluated by bio‐layer interferometry (BLI). […]

SMILES | Kd (PYR1 [1]) [µM] | Kd (PYR1 [2]) [µM] | inhibition at 25 µM [3] [%] | inhibition at 50 µM [3] [%] | Kd (PYR1 [4]) [µM]
O=[N+]([O-])c1cc(Br)cc([N+](=O)[O-])c1NS(=O)(=O)c1cccc(Cl)c1 [361a, N-(4-bromo-2,6-dinitrophenyl)-3-chlorobenzenesulfonamide] | 8.25 ± 0.25 | 7.06 ± 1.92 |  |  | 
CC1=CC(=O)CC(C)(C)[C@@]1(O)/C=C/C(C)=C\C(=O)O [ABA] |  |  | > 80 |  | 
Cc1ccccc1S(=O)(=O)Nc1c([N+](=O)[O-])cc(Br)cc1[N+](=O)[O-] [368a, N-(4-bromo-2,6-dinitrophenyl)-2-methylbenzenesulfonamide] | 4.73 ± 0.37 | 14.9 ± 3.29 |  |  | 
COc1ccc(C(=O)Nc2cccc3c2C(=O)N(C2CCC(=O)NC2=O)C3=O)cc1OC (centres unmarked) [173b, diopyridin] |  |  |  | > 80 | 
COc1ccc(C(=O)Nc2cccc3c2C(=O)N(C2CCC(=O)NC2=O)C3=O)cc1OC (centres unmarked) [173b, N-(2(2,6-dioxopiperidin-3-yl)-1,3-dioxoisoindolin-4-yl)-3,4-dimethoxybenzamide] | 1.55 ± 0.11 |  |  |  | 9.5 ± 0.75

Further lines, with some results ahead:

Kd (PYR1 [1]) [µM] | Kd (PYR1 [2]) [µM] | SMILES | inhibition at 25 µM [3] [%] | inhibition at 50 µM [3] [%] | Kd (PYR1 [4]) [µM]
37.8 ± 1.31 | 171 ± 3.76 | CC(C)(C)c1ccc(S(=O)(=O)Nc2c([N+](=O)[O-])cc(Br)cc2[N+](=O)[O-])cc1 [145a, N-(4-bromo-2,6-dinitrophenyl)-4-(tert-butyl)benzenesulfonamide] |  |  | 
3.96 ± 0.4 | 7.59 ± 1.62 | O=[N+]([O-])c1cc(Br)cc([N+](=O)[O-])c1NS(=O)(=O)c1cccc(F)c1 [260a, N-(4-bromo-2,6-dinitrophenyl)-3-fluorobenzenesulfonamide] |  |  | 
8.43 ± 0.75 | 9.51 ± 2.19 | O=[N+]([O-])c1cc(Br)cc([N+](=O)[O-])c1NS(=O)(=O)c1ccccc1Cl [470a, N-(4-bromo-2,6-dinitrophenyl)-2-chlorobenzenesulfonamide] |  |  | 
